Entries after “also recorded” stand apart in the source; their conditions may differ.
Legend:
[1] = system: beagle dog model of osteoarthritis; test: MRI evaluation of effect on joint structure in animal model of osteoarthritis; type: in vivo; conditions: MRI before vs 3 months after single intra-articular administration; FIG. 6
Experimental: In a beagle dog model of osteoarthritis induced by daily forced exercise after surgical anterior cruciate ligament transection with medial meniscectomy, the effect on joint structure was evaluated by taking an MRI (SIGNA Pioneer 3.0T MR, GE Healthcare Co., USA) of the joint before a single intra-articular administration and 3 months thereafter.

[2] = system: osteoarthritis-induced beagle dogs; test: Efficacy on improving walking ability (lameness score) in animal model of osteoarthritis; type: in vivo
Experimental: Beagle dogs were purchased from Orient Bio, and healthy animals were used for the experiment after a one-week quarantine cycle. After 1 week of recovery after surgical anterior cruciate ligament transection with medial meniscectomy, forced exercise for 30 minutes every day was carried out to induce osteoarthritis. The surgery for inducing osteoarthritis was performed under anesthesia after the animals were depilated on both knees. After broad disinfection of the incision site with povidone and 70% ethanol, the skin of the right knee was incised. By blunt dissection of the surrounding tissues, the articular surface of the distal end of femur was exposed. An instrument portal was created on the medial articular surface, and the meniscus and anterior cruciate ligament were excised. Wound closure was performed by the use of 4-0 nylon suture. […] The assessment about walking ability for evaluating the pain status and functional level of osteoarthritis animals was carried out according to the method proposed by Pashuck et al. (Troy D. Pashuck et al., J Orthop Res, 2016, 34(10): 1772-1779), and the lameness score as represented in Table 1 was recorded until the end of the experiment. […] The efficacy of nivocasan in an animal model of osteoarthritis was measured by evaluating the lameness score twice a week after a single intra-articular administration. […]

[3] = system: IL-1β secretion in THP-1 cells; test: Suppressive efficacy against LPS/nigericin-induced IL-1β secretion in THP-1 cells; type: cell-based, human; conditions: PMA-differentiated, LPS 100 ng/ml 24 h, compound 30 min, then 5 μM nigericin & 1 mM ATP 1 h, ELISA, FIG. 1
Experimental: To evaluate the inflammation blocking effects of nivocasan, IL-1β secretion was measured in THP-1 cells under conditions in which inflammation was induced by lipopolysaccharide (LPS)/nigericin treatment. The day before LPS treatment, THP-1 cells were plated at 2.5×10^5 cells/well (24-well plate) in RPMI-1640 media and treated with 0.5 μM phorbol 12-myristate 13-acetate (PMA) for macrophage differentiation during overnight culture. The media was then changed with Opti-MEM media and the cells were incubated with LPS 100 ng/ml (the first inflammation signal for […] up-regulation) for 24 hours. The cells were then washed with PBS twice and treated with nivocasan or DMSO for 30 minutes in Opti-MEM media, followed by incubation with 5 μM nigericin & 1 mM ATP for 1 hour to activate inflammasome (NLRP3 activation and IL-1β secretion). Secreted IL-1β was measured from cell media by using R&D Systems Quantikine human IL-1β (detection limit: 7.8 pg/ml), and the results are represented in FIG. 1.

[4] = system: IL-1β secretion in human peripheral blood mononuclear cells (PBMCs); test: Suppressive efficacy against LPS-induced IL-1β secretion in human-derived PBMC; type: cell-based; conditions: FIG. 2
Experimental: The inhibitory effects of nivocasan on inflammasome activation in human peripheral blood mononuclear cells (PBMCs) were evaluated by measuring LPS-induced IL-1β secretion. Freshly isolated PBMCs were plated at 2.5×10^5 cells/well (24-well plate) in RPMI-1640 media and treated with nivocasan or DMSO for 30 minutes, followed by incubation with 100 ng/ml LPS for 24 hours to induce inflammation. Levels of IL-1β in PBMC supernatants was measured by ELISA (R&D Systems Quantikine human IL-1β; detection limit: 7.8 pg/ml), and the results are represented in FIG. 2.

human chondrocytes = test: Protective effect on TNF-α-induced apoptosis in human-derived chondrocytes; type: cell-based; conditions: human normal chondrocytes, compound 30 min, then 10 ng/ml TNF-α and 1 μg/ml actinomycin D 18 h; Cell Death Detection ELISA; FIG. 3
Experimental: The protective effect of nivocasan on TNF-α-induced apoptosis was evaluated in human chondrocytes. Human normal chondrocytes were plated at 1×10^5 cells/well (collagen-coated 24-well plate) in chondrocyte media (Prigrow IV Medium, Applied Biological Materials Inc.) and incubated overnight. The cells were treated with nivocasan or DMSO for 30 minutes, followed by incubation with 10 ng/ml human recombinant TNF-α and 1 μg/ml actinomycin D for 18 hours to induce apoptosis. Apoptosis was measured by using Cell Death Detection ELISA kit, and the results are represented in FIG. 3.

[5] = system: beagle dog model of osteoarthritis; test: Histopathological evaluation of effect on joint in animal model of osteoarthritis; type: in vivo
Experimental: In a beagle dog model of osteoarthritis induced by daily forced exercise after surgical anterior cruciate ligament transection with medial meniscectomy, an autopsy was performed 3 months after a single intra-articular administration, and the joint was collected and fixed. The fixed tissue was subjected to conventional tissue processing such as demineralization, trimming, dehydration, paraffin embedding, sectioning and the like to prepare a specimen for histopathological examination, followed by hematoxylin eosin and safranin-o staining. An optical microscopy (Olympus BX53, Japan) was used to observe histopathological changes.
Histopathological evaluation was performed by comparing between groups with scoring as shown in Tables 3 to 8 according to the method proposed by Cook et al. (Cook et al., Osteoarthritis Cartilage. 2010; 18 Suppl 3:S66-S79), and the results are represented in FIG. 7.

Row | SMILES | bone marrow lesion (MRI score) [1] | synovitis (MRI score) [1] | improvement of walking ability (lameness score), compared with nivocasan ([2]; single intra-articular administration of 10 mg, FIG. 5) | suppression of LPS/nigericin-induced IL-1β secretion [3] | concentration showing maximum effect on LPS-induced IL-1β secretion ([4]; 100 ng/ml LPS 24 h) [µM] | suppression of LPS-induced IL-1β secretion ([4]; compound 30 min, then 100 ng/ml LPS 24 h, ELISA) | prevention of TNF-α-induced apoptosis (human chondrocytes) | improvement of walking ability (lameness score) ([2]; single intra-articular administration 0.1, 0.3, 1, 3 and 10 mg/knee, scored twice a week for 3 months, FIG. 4) | histopathology evaluation of the joints ([5]; autopsy 3 months after single intra-articular administration, FIG. 7) | improving cartilage structure ([5]; single administration, summary of Examples 4 to 6)
1 | C[C@H](NC(=O)C(=O)Nc1ccccc1C(C)(C)C)C(=O)N[C@@H](CC(=O)O)C(=O)COc1c(F)c(F)cc(F)c1F [emricasan, N-(2-tert-butylphenyl)-2-oxoglycyl-N-[1(S)-(carboxymethyl)-2-oxo-3-(2,3,5,6-tetrafluorophenoxy)propyl]-L-alaninamide, reference compound] | improvement | improvement | improvement of a walking ability similar to that of 10 mg of nivocasan |  |  |  |  |  |  | 
2 | CC(C)[C@@]1(C(=O)N[C@H]2CC(=O)O[C@]2(O)CF)CC(c2nccc3ccccc23)=NO1 [nivocasan, (R)—N-((2S,3S)-2-(fluoromethyl)-2-hydroxy-5-oxotetrahydrofuran-3-yl]-5-isopropyl-3-(isoquinolin-1-yl)-4,5-dihydroisoxazole-5-carboxamide] | improvement | improvement |  | suppressed LPS/nigericin-induced IL-1β secretion in THP-1 cells in a dose-dependent manner | 0.3 | suppressed LPS-induced IL-1β secretion from PBMCs in a dose dependent manner | prevented TNF-α-induced apoptosis in human chondrocytes in a dose-dependent manner | showed the efficacy of the improvement of walking ability in a dose-dependent manner; also recorded: effective in improving walking ability | dose-related histopathological improvement | effective in improving cartilage structure

Source: US20230310412A1, “USE OF CASPASE INHIBITOR FOR ALLEVIATING OR TREATING OSTEOARTHRITIS” (LG CHEM, LTD., priority 2020, published 2023)
